The values that follow come from US20200223889A1, “Bicyclic Compounds Capable of Binding to Melanocortin 4 Receptor” (Novo Nordisk A/S, priority 2017, published 2020).

Structures are written as SMILES. Where two headings read alike, the source gives them in different places. Positions of bridges follow the written chain, without caps; N, C: chain ends. Non-standard residues stand in square brackets, D forms with d. Residues, ends and D or L forms follow the SMILES beside them. Ser(ΨH,HPro) = O=C(O)[C@@H]1COCN1; Dab = NCC[C@H](N)C(=O)O; Aib = CC(C)(N)C(=O)O; Sar = CNCC(=O)O

For one test, the target named is T1, human MC1R (Homo sapiens, UniProt Q01726).
T1 construct: expressed in transfected cells
Kind of test: Functional cAMP assay (CisBio HTRF) in BHK cells expressing human MC1R. The class given is cell-based. The method, boiled down: (§1)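 Stably transfected BHK cells expressing human MC1R or MC4R; cAMP quantified by HTRF (cAMP-d2/cryptate) after 30 min compound stimulation at 25 °C in DMEM-based buffer with 1 mM IBMX. Compounds were prepared as 10-fold serial dilutions starting at 2 μM (working solution, 2× final). Readout after 1 h at 25 °C; non-linear regression.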
Background: Changes in cAMP serve as a functional read-out for many G protein-coupled receptors.

Test [1] addresses T2, human MC4R (Homo sapiens, UniProt P32245).
T2 construct: expressed in transfected cells
Kind of test: Functional cAMP assay (CisBio HTRF) in BHK cells expressing human MC4R. In kind it is cell-based. As to conditions: for MC1R/MC4R cAMP EC50 ratio: MC1R cAMP EC50 divided by MC4R cAMP EC50. The method, boiled down: as §1

Test [2] concerns the target T2, human MC4R. Briefly: 125NDP-α-MSH competitive binding to membranes of BHK cells expressing human MC4 receptor (filtration assay). The method, boiled down: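 Displacement of ^125NDP-α-MSH (apx. […] final) was measured by filtration after 2 h at 25 °C, using diluted membranes of stably transfected BHK cells in pH 7.0 HEPES buffer. Compounds spanned 1 μM to 0.001 nM; binding curves were analysed by non-linear regression.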

Setting [3] is: BHK cells expressing human MC1R, '>' = highest dose used with no response, read-out: MC1R cAMP EC50.
Where [4] appears, read: BHK cells expressing human MC4R, '>' = highest dose used with no response, read-out: MC4R cAMP EC50.
[5] abbreviates: human MC4R, BHK cell membranes, 125NDP-α-MSH radioligand, read-out: MC4R binding Ki.

A word on the EC50: it is the midpoint of the concentration-response curve. By Ki is commonly meant the equilibrium dissociation constant of an inhibitor or competing ligand from its target.

T1 sequence (Q01726 whole entry): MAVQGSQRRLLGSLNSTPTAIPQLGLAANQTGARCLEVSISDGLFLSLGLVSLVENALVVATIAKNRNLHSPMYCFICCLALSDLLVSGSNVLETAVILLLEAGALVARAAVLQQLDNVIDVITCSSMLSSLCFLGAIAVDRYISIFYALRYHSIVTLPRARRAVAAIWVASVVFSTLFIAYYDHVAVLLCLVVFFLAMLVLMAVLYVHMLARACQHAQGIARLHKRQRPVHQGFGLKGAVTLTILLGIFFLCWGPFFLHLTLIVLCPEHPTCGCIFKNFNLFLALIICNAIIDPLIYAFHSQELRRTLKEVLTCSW
T2 sequence (P32245 whole entry): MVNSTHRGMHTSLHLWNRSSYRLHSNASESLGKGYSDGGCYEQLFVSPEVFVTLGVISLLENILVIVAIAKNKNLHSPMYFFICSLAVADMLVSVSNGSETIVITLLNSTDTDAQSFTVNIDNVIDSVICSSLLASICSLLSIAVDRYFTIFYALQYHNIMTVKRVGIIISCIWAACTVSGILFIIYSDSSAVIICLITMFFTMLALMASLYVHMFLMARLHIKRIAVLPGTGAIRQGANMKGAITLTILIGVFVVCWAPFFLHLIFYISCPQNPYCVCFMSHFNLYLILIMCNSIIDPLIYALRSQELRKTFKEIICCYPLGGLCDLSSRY

The compound `C[C@@H]1NC(=O)[C@H](C)NC(=O)[C@@H]2CSSC[C@H](NC(=O)[C@H](Cc3c[nH]c4ccccc34)NC(=O)[C@H](C)NC(=O)[C@@H](C)NC1=O)C(=O)N[C@@H](C)C(=O)N[C@@H](Cc1c[nH]cn1)C(=O)N[C@H](Cc1ccccc1)C(=O)N[C@@H](CCCNC(=N)N)C(=O)N[C@@H](Cc1c[nH]c3ccccc13)C(=O)N2` [Chem. 88, c[c[Cys-Ala-His-D-Phe-Arg-Trp-Cys]- Ala-Ala-D-Ala-Ala-Trp]] (cyclo(AA[dA]AWCAH[dF]RWC); disulfide 6-12) showed an EC50 on human MC1R of 1.31 nM. Moreover, on human MC4R [1], the EC50 turned out to be 0.02 nM and the “MC1R/MC4R cAMP EC50 ratio” value turned out to be 66. This compound displayed a Ki at human MC4R [2] of 0.2 nM.
As to `C[C@@H]1NC(=O)[C@@H]2CSSC[C@H](NC(=O)[C@H](Cc3c[nH]c4ccccc34)NC(=O)[C@H](CCCCN)NC(=O)[C@H](CCCCN)NC(=O)[C@H](CCCCN)NC1=O)C(=O)N1COC[C@H]1C(=O)N[C@@H](Cc1c[nH]cn1)C(=O)N[C@H](Cc1ccccc1)C(=O)N[C@@H](Cc1c[nH]cn1)C(=O)N[C@@H](Cc1c[nH]c3ccccc13)C(=O)N2` [Chem. 103, c[c[Cys-OXA-His-D-Phe-His-Trp- Cys]-Ala-Lys-Lys-Lys-Trp]] (cyclo(AKKKWC[Ser(ΨH,HPro)]H[dF]HWC); disulfide 6-12), the EC50 on human MC1R (setting [3]) was above 70 nM; at human MC4R [1] (setting [4]), 0.05 nM. For the same compound, at human MC4R [1], the “MC1R/MC4R cAMP EC50 ratio” value is reported as above 1400. Also, at human MC4R [2] (setting [5]), the Ki came out at 0.06 nM.
With `C[C@@H]1NC(=O)[C@@H]2CSSC[C@H](NC(=O)[C@H](Cc3c[nH]c4ccccc34)NC(=O)[C@H](CCCCN)NC(=O)[C@H](CCCCN)NC(=O)[C@H](CCCCN)NC1=O)C(=O)N(C)CC(=O)N[C@@H](Cc1c[nH]cn1)C(=O)N[C@H](Cc1ccccc1)C(=O)N[C@@H](Cc1c[nH]cn1)C(=O)N[C@@H](Cc1c[nH]c3ccccc13)C(=O)N2` [Chem. 73, c[c[Cys-Sar-His-D-Phe-His-Trp-Cys]- Ala-Lys-Lys-Lys-Trp]] (cyclo(AKKKWC[Sar]H[dF]HWC); disulfide 6-12), the EC50 on human MC1R (setting [3]) was above 50 nM. In addition, on human MC4R [1], the “MC1R/MC4R cAMP EC50 ratio” value is recorded as above 40. On human MC4R [2] (setting [5]), the Ki worked out at 0.3 nM.
Take `C[C@@H]1NC(=O)[C@@H]2CSSC[C@H](NC(=O)[C@H](Cc3c[nH]c4ccccc34)NC(=O)[C@H](CCCNC(=N)N)NC(=O)[C@H](Cc3ccccc3)NC(=O)[C@H](Cc3c[nH]cn3)NC1=O)C(=O)N[C@@H](C)C(=O)N[C@@H](Cc1c[nH]cn1)C(=O)N[C@@H](Cc1ccccc1)C(=O)N[C@@H](CCCNC(=N)N)C(=O)N[C@@H](Cc1c[nH]c3ccccc13)C(=O)N2` [Chem. 56, c[c[Cys-Ala-His-Phe-Arg-Trp-Cys]- Ala-His-Phe-Arg-Trp]]: a half-maximal effect on human MC1R (EC50) was put at 35.3 nM. In addition, at human MC4R [1], the 50% effective concentration (EC50) stood at 0.44 nM and the “MC1R/MC4R cAMP EC50 ratio” value worked out at 80. Further, the Ki on human MC4R [2] came to 1.82 nM.
Taken in the same sequence, the figures for `C[C@H]1NC(=O)[C@@H]2CSSC[C@H](NC(=O)[C@H](Cc3c[nH]c4ccccc34)NC(=O)[C@H](CCCNC(=N)N)NC(=O)[C@@H](Cc3ccccc3)NC(=O)[C@H](Cc3c[nH]cn3)NC1=O)C(=O)N[C@H](C)C(=O)N[C@@H](Cc1c[nH]cn1)C(=O)N[C@H](Cc1ccccc1)C(=O)N[C@@H](CCCNC(=N)N)C(=O)N[C@@H](Cc1c[nH]c3ccccc13)C(=O)N2` [Chem. 10, c[c[Cys-D-Ala-His-D-Phe-Arg-Trp- Cys]-D-Ala-His-D-Phe-Arg-Trp]] were 4.88 nM, 0.05 nM, 98 and 0.13 nM.
Take `C[C@@H]1NC(=O)[C@H](C)NC(=O)[C@@H]2CSSC[C@H](NC(=O)[C@H](Cc3c[nH]c4ccccc34)NC(=O)[C@H](C)NC(=O)[C@@H](Cc3ccccc3)NC1=O)C(=O)N[C@@H](C)C(=O)N[C@@H](Cc1c[nH]cn1)C(=O)N[C@H](Cc1ccccc1)C(=O)N[C@@H](CCCNC(=N)N)C(=O)N[C@@H](Cc1c[nH]c3ccccc13)C(=O)N2` [Chem. 11, c[[Cys-Ala-His-D-Phe-Arg-Trp-Cys]- Ala-Ala-D-Phe-Ala-Trp]] (cyclo(AA[dF]AWCAH[dF]RWC); disulfide 6-12): the EC50 on human MC1R turned out to be 2.17 nM. On human MC4R [1], the EC50 was found to be 0.03 nM and the “MC1R/MC4R cAMP EC50 ratio” value was found to be 72. Besides, at human MC4R [2], the affinity, expressed as Ki, was 0.25 nM.
`C[C@@H]1NC(=O)[C@@H]2CSSC[C@H](NC(=O)[C@H](Cc3c[nH]c4ccccc34)NC(=O)[C@H](CCCNC(=N)N)NC(=O)[C@@H](Cc3ccccc3)NC(=O)[C@H](Cc3c[nH]cn3)NC1=O)C(=O)N[C@@H](C)C(=O)N[C@@H](CCCCN)C(=O)N[C@@H](CCCCN)C(=O)N[C@@H](CCCCN)C(=O)N[C@@H](CCCNC(=N)N)C(=O)N2` [Chem. 59, c[c[Cys-Ala-His-D-Phe-Arg-Trp-Cys]- Ala-Lys-Lys-Lys-Arg]] (cyclo(AH[dF]RWCAKKKRC); disulfide 6-12): the figures for the EC50 at human MC1R (setting [3]) and at human MC4R [1] (setting [4]) were 0.16 nM and 0.004 nM, respectively. Moreover, the “MC1R/MC4R cAMP EC50 ratio” value on human MC4R [1] is given as 40. In addition, the Ki at human MC4R [2] (setting [5]) was 0.01 nM.
As to `C[C@@H]1NC(=O)[C@@H]2CSSC[C@H](NC(=O)[C@H](Cc3c[nH]c4ccccc34)NC(=O)[C@H](CCCCN)NC(=O)[C@H](CCCCN)NC(=O)[C@H](CCCCN)NC1=O)C(=O)N1CCC[C@@H]1C(=O)N[C@@H](Cc1c[nH]cn1)C(=O)N[C@H](Cc1ccccc1)C(=O)N[C@@H](Cc1c[nH]cn1)C(=O)N[C@@H](Cc1c[nH]c3ccccc13)C(=O)N2` [Chem. 98, c[c[Cys-D-Pro-His-D-Phe-His-Trp- Cys]-Ala-Lys-Lys-Lys-Trp]] (cyclo(AKKKWC[dP]H[dF]HWC); disulfide 6-12), the EC50 at human MC1R (setting [3]) was above 55 nM. For the same compound, the “MC1R/MC4R cAMP EC50 ratio” value on human MC4R [1] is on record as above 20. For the same compound, the Ki on human MC4R [2] (setting [5]) came to 0.6 nM.
With `C[C@@H]1NC(=O)[C@@H]2CSSC[C@H](NC(=O)[C@H](Cc3c[nH]c4ccccc34)NC(=O)[C@H](CCCCN)NC(=O)[C@H](CCCCN)NC(=O)[C@H](CCCCN)NC1=O)C(=O)N1CCC[C@H]1C(=O)N[C@@H](Cc1c[nH]cn1)C(=O)N[C@H](Cc1ccccc1)C(=O)N[C@@H](Cc1c[nH]cn1)C(=O)N[C@@H](Cc1c[nH]c3ccccc13)C(=O)N2` [Chem. 62, c[c[Cys-Pro-His-D-Phe-His-Trp-Cys]- Ala-Lys-Lys-Lys-Trp]] (cyclo(AKKKWCPH[dF]HWC); disulfide 6-12), the EC50 at human MC1R (setting [3]) was above 1 nM; on human MC4R [1] (setting [4]) it was 0.17 nM. Besides, on human MC4R [1], the “MC1R/MC4R cAMP EC50 ratio” value is recorded as above 6. The Ki on human MC4R [2] (setting [5]) was 0.13 nM.
The matching figures for `C[C@@H]1NC(=O)[C@@H]2CSSC[C@H](NC(=O)[C@H](Cc3c[nH]c4ccccc34)NC(=O)[C@H](CCCCN)NC(=O)[C@H](CCCCN)NC(=O)[C@H](CCCCN)NC1=O)C(=O)NC(C)(C)C(=O)N[C@@H](Cc1c[nH]cn1)C(=O)N[C@H](Cc1ccccc1)C(=O)N[C@@H](Cc1c[nH]cn1)C(=O)N[C@@H](Cc1c[nH]c3ccccc13)C(=O)N2` [Chem. 61, c[c[Cys-Aib-His-D-Phe-His-Trp-Cys]- Ala-Lys-Lys-Lys-Trp]] (cyclo(AKKKWC[Aib]H[dF]HWC); disulfide 6-12): above 1 nM, 0.31 nM, above 3 and 0.22 nM.
The matching figures for `CC1(C)NC(=O)[C@@H]2CSSC[C@H](NC(=O)[C@H](Cc3c[nH]c4ccccc34)NC(=O)[C@H](CCN)NC(=O)[C@@H](Cc3ccccc3)NC(=O)[C@H](Cc3c[nH]cn3)NC1=O)C(=O)NC(C)(C)C(=O)N[C@@H](Cc1c[nH]cn1)C(=O)N[C@H](Cc1ccccc1)C(=O)N[C@@H](CCN)C(=O)N[C@@H](Cc1c[nH]c3ccccc13)C(=O)N2` [Chem. 46, c[c[Cys-Aib-His-D-Phe-Dab-Trp- Cys]-Aib-His-D-Phe-Dab-Trp]] (cyclo([Aib]H[dF][Dab]WC[Aib]H[dF][Dab]WC); disulfide 6-12): above 5.5 nM, 5.65 nM, above 1 and 7.86 nM.
Regarding `C[C@@H]1NC(=O)[C@@H]2CSCSC[C@H](NC(=O)[C@H](Cc3c[nH]c4ccccc34)NC(=O)[C@H](CCCNC(=N)N)NC(=O)[C@@H](Cc3ccccc3)NC(=O)[C@H](Cc3c[nH]cn3)NC1=O)C(=O)N[C@@H](C)C(=O)N[C@@H](Cc1c[nH]cn1)C(=O)N[C@H](Cc1ccccc1)C(=O)N[C@@H](CCCNC(=N)N)C(=O)N[C@@H](Cc1c[nH]c3ccccc13)C(=O)N2` [Chem. 8, c[c[Cys-Ala-His-D-Phe-Arg-Trp-Cys]- Ala-His-D-Phe-Arg-Trp]], the results for the EC50 on human MC1R (setting [3]) and at human MC4R [1] (setting [4]) were 1.76 nM and 0.02 nM, respectively. For the same compound, the “MC1R/MC4R cAMP EC50 ratio” value at human MC4R [1] amounted to 88. On human MC4R [2] (setting [5]), the Ki was found to be 0.08 nM.
Taken in the same sequence, the figures for `C[C@@H]1NC(=O)[C@@H]2CSSC[C@H](NC(=O)[C@H](Cc3c[nH]c4ccccc34)NC(=O)[C@H](CCCCNC(=N)N)NC(=O)[C@@H](Cc3ccccc3)NC(=O)[C@H](Cc3c[nH]cn3)NC1=O)C(=O)N[C@@H](C)C(=O)N[C@@H](Cc1c[nH]cn1)C(=O)N[C@H](Cc1ccccc1)C(=O)N[C@@H](CCCCNC(=N)N)C(=O)N[C@@H](Cc1c[nH]c3ccccc13)C(=O)N2` [Chem. 22, c[c[Cys-Ala-His-D-Phe-HArg-Trp- Cys]-Ala-His-D-Phe-HArg-Trp]] were 0.22 nM, 0.02 nM, 11 and 0.06 nM.
